Counter-ions that a name gives are not always drawn. Like-named read-outs stand apart in the source and are kept apart here.
What was measured:
Cryptosporidium parvum = assay: qRT-PCR assay of the growth of C. parvum in vitro in HCT-8 host cells (primary and secondary screening, EC50); type: cell-based; settings: Cryptosporidium parvum, HCT-8; for inhibition at 10 µM: primary screening at 10 uM, read-out: Inhibition (%)
[1] = primary screening at 10 uM, treated vs control

Row | Structure (SMILES) | cytotoxicity at 41 h, 10 µM (in vitro; human) | inhibition at 10 µM (Cryptosporidium parvum) | Hs18S ΔCT (HCT-8 host cells (Hs18S); human, 41 h, 10 μM) | cytotoxicity at 10 µM (in vitro) | inhibition at 3.3 µM (Cryptosporidium parvum; secondary screening at 3.3 uM, read-out: % Inhibition (3.3 uM)) | Hs18S ΔCT (HCT-8 host cells (Hs18S); [1]) | cytotoxicity at 41 h, 10 µM (in vitro)
1 | C[C@H]1O[C@H](O[C@H]2[C@H](O)[C@@H](O)[C@@H](O[C@H]3[C@H](O)[C@@H](O)C(O)O[C@@H]3CO)O[C@@H]2CO)[C@H](O)[C@@H](O)[C@@H]1N[C@H]1C=C(CO)[C@@H](O)[C@H](O)[C@H]1O (stereo partly shown) [ACARBOSE] | 23.6% | 37.8% | 0.39 | – | – | – | –
2 | COc1cc(C(C)=O)cc(OC)c1O [ACETOSYRINGONE] | -4% | -26.9% | -0.06 | – | – | – | –
3 | CC(=O)Oc1c2c(c(CC=C(C)C)c3c1C(=O)C1=C[C@@H]4CC5C(C)(C)OC(C/C=C(\C)C(=O)O)(C4=O)[C@@]15O3)OC(C)(CCC=C(C)C)C=C2 (stereo partly shown) [ACETYL I[…]] | – | 95.2% | – | 66.4% | 27% | 1.57 | –
4 | O=C(O)/C=C(\CC(=O)O)C(=O)O [ACONITIC ACID] | -0.7% | -3.59% | -0.01 | – | – | – | –
5 | CCN1C[C@]2(COC)[C@H](O)C[C@H](OC)[C@@]34[C@@H]5C[C@@]6(O)[C@H](OC(=O)c7ccccc7)[C@@H]5[C@@](OC(C)=O)([C@@H]([C@H](OC)[C@H]23)[C@@H]14)[C@@H](O)[C@@H]6OC [ACONITINE] | – | 2.84% | – | -11.7% | – | -0.16 | –
6 | CC(=O)O[C@@H]1C[C@@]23C[C@@]24CC[C@H](O[C@@H]2OC[C@@H](O)[C@H](O)[C@H]2O)C(C)(C)[C@@H]4CC[C@H]3[C@]2(C)C[C@@H]3O[C@]4(C[C@@H](C)[C@@H]3[C@@]12C)O[C@H](O)[C@@]1(C)O[C@@H]41 [ACTEIN] | – | 3.9% | – | – | – | -0.41 | -33.3%
7 | CCCCC[C@H](CC(=O)NO)C(=O)N[C@H](C(=O)N1CCC[C@H]1CO)C(C)C [ACTINONIN] | -4.6% | 31.3% | -0.06 | – | – | – | –
8 | Nc1ncnc2nc[nH]c12 [ADENINE] | -5.9% | -9.27% | – | – | – | -0.08 | –
9 | Nc1ncnc2c1ncn2[C@@H]1O[C@H](COP(=O)(O)O)[C@@H](O)[C@H]1O [ADENOSINE PHOSPHATE] | -11.8% | 23.5% | -0.16 | – | – | – | –
10 | Nc1ncnc2c1ncn2[C@@H]1O[C@H](CO)[C@@H](O)[C@H]1O [ADENOSINE] | 1.5% | -13.4% | 0.02 | – | – | – | –
11 | OC[C@@H](O)[C@@H](O)[C@@H](O)CO [ADONITOL] | 16.4% | 6.19% | 0.26 | – | – | – | –
12 | N=C(N)NCCCCN [AGMATINE SULFATE] | – | -2.93% | – | 13.5% | – | 0.21 | –
13 | CC[C@H]1[C@@H]2C[C@H]3[C@@H]4N(C)c5ccccc5[C@]45C[C@@H]([C@H]2[C@H]5O)N3[C@@H]1O [AJMALINE] | – | -1.24% | – | 6.9% | – | 0.10 | –
14 | O=C1c2ccccc2C(=O)c2c1ccc(O)c2O [ALIZARIN] | – | -42.4% | – | -9.1% | – | -0.13 | –
15 | NC(=O)NC1NC(=O)NC1=O (stereo not shown) [ALLANTOIN] | -16.1% | 8.13% | -0.22 | – | – | – | –
16 | CC(=O)[C@H]1CC[C@H]2[C@@H]3CC[C@H]4C[C@H](O)CC[C@]4(C)[C@H]3CC[C@]12C [ALLOPREGNANOLONE] | – | -52.5% | – | 1.3% | – | 0.02 | –
17 | C=CCN=C=S [ALLYLISOTHIOCYANATE] | 17.7% | 25.7% | 0.28 | – | – | – | –
18 | O=C1c2c(O)cccc2C([C@@H]2O[C@H](CO)[C@@H](O)[C@H](O)[C@H]2O)c2cc(CO)cc(O)c21 (stereo partly shown) [ALOIN] | -54.3% | -0.73% | -0.63 | – | – | – | –
19 | C[C@@H]1[C@H](O)[C@@H](C)/C=C/C=C/C=C/C=C/C=C/C=C/C=C/[C@H](O[C@@H]2O[C@H](C)[C@@H](O)[C@H](N)[C@@H]2O)C[C@@H]2O[C@](O)(C[C@@H](O)C[C@@H](O)[C@H](O)CC[C@@H](O)C[C@@H](O)CC(=O)O[C@H]1C)C[C@H](O)[C@H]2C(=O)O [AMPHOTERICIN B] | 7.1% | -4.47% | 0.11 | – | – | – | –
20 | N#C[C@H](O[C@@H]1O[C@H](CO[C@@H]2O[C@H](CO)[C@@H](O)[C@H](O)[C@H]2O)[C@@H](O)[C@H](O)[C@H]1O)c1ccccc1 [AMYGDALIN] | – | -15.6% | – | 4.8% | – | 0.07 | –

Row | Structure (SMILES) | cytotoxicity at 41 h, 10 µM (in vitro; human) | inhibition at 10 µM (Cryptosporidium parvum) | Hs18S ΔCT (HCT-8 host cells (Hs18S); human, 41 h, 10 μM) | cytotoxicity at 10 µM (in vitro) | inhibition at 3.3 µM (Cryptosporidium parvum; secondary screening at 3.3 uM, read-out: % Inhibition (3.3 uM)) | Hs18S ΔCT (HCT-8 host cells (Hs18S); [1]) | cytotoxicity at 41 h, 10 µM (in vitro)
21 | CN1CCCCC1c1ccc(-c2cccnc2)nc1 (stereo not shown) [ANABASAMINE HYDROCHLORIDE] | – | 8.75% | – | 24.3% | – | 0.40 | –
22 | c1cncc([C@@H]2CCCCN2)c1 [ANABASINE HYDROCHLORIDE] | – | 6.88% | – | -5.5% | – | -0.08 | –
23 | C=C1CC[C@@H]2[C@](C)(CO)[C@H](O)CC[C@@]2(C)[C@@H]1C/C=C1/C(=O)OC[C@H]1O [ANDROGRAPHOLIDE] | 5.3% | 38.8% | 0.08 | – | – | – | –
24 | C/C=C/c1ccc(OC)cc1 [ANETHOLE] | -5.8% | -5.3% | -0.08 | – | – | – | –
25 | COc1ccc([C@@H](C)C(=O)c2ccc(O)cc2O)cc1 [ANGOLENSIN (R)] | -12.5% | -26.9% | -0.17 | – | – | – | –
26 | COc1ccc2c(=O)c(CC(=O)O)coc2c1 [ANHYDROBRAZILIC ACID] | -0.5% | 11.9% | -0.01 | – | – | – | –
27 | COc1cc(O)cc(OC)c1OC [ANTIAROL] | 6.9% | 8.48% | 0.10 | – | – | – | –
28 | CCCCCC[C@H]1C(=O)O[C@H](C)[C@H](NC(=O)c2cccc(NC=O)c2O)C(=O)O[C@@H](C)[C@@H]1OC(=O)CC(C)C [ANTIMYCIN A, ANTIMYCIN A (A1 shown)] | – | 10.9% | – | 7.7% | – | 0.12 | –
29 | O=C(O)C1CC([C@@H]2CCCCN2)CN2CCCCC12 (stereo partly shown) [APHYLLIC ACID] | 16.1% | -28.5% | 0.25 | – | – | – | –
30 | COc1ccc(-c2cc(=O)c3c(O)cc(OC)cc3o2)cc1 [APIGENIN DIMETHYL ETHER] | – | -37.8% | – | 11.3% | – | 0.17 | –
31 | O=c1cc(-c2ccc(O)cc2)oc2cc(O)cc(O)c12 [APIGENIN] | 3.9% | -44.6% | 0.06 | – | – | – | –
32 | OC[C@H]1O[C@@H](Oc2ccc(O)cc2)[C@H](O)[C@@H](O)[C@@H]1O [ARBUTIN] | 0.5% | 16.1% | 0.01 | – | – | – | –
33 | COC(=O)C1=CCCN(C)C1 [ARECOLINE HYDROBROMIDE] | – | -6.72% | – | -38.7% | – | -0.47 | –
34 | COc1cccc2c1cc([N+](=O)[O-])c1c(C(=O)O)cc3c(c12)OCO3 [ARISTOLOCHIC ACID] | – | 8.39% | – | – | – | -0.03 | -1.8%
35 | C[C@@H]1CC[C@H]2[C@@H](C)C(=O)O[C@@H]3O[C@@]4(C)CC[C@@H]1[C@]32OO4 [ARTEMISININ] | 0% | 16.7% | 0.00 | – | – | – | –
36 | CCCCCC(=O)Cc1cc(O)cc(O)c1C(=O)Oc1cc(CC(=O)CCCCC)c(C(=O)O)c(OC)c1 [ARTHONIOIC ACID] | 1.1% | -25.4% | 0.02 | – | – | – | –
37 | O=C1O[C@H]([C@@H](O)CO)C(O)=C1O [ASCORBIC ACID] | 26.2% | 12% | 0.44 | – | – | – | –
38 | C[C@H]1[C@H](C)CC[C@]2(C(=O)O)CC[C@]3(C)C(=CC[C@@H]4[C@@]5(C)C[C@@H](O)[C@H](O)[C@@](C)(CO)[C@@H]5CC[C@]43C)[C@H]12 [ASIATIC ACID] | -22.7% | 25.1% | -0.29 | – | – | – | –
39 | CC1=C(/C=C/C(C)=C/C=C/C(C)=C/C=C/C=C(C)/C=C/C=C(C)/C=C/C2=C(C)C(=O)[C@@H](O)CC2(C)C)C(C)(C)C[C@H](O)C1=O [ASTAXANTHIN] | -34.8% | 45.1% | -0.43 | – | – | – | –
40 | COC(=O)c1c(C)cc(OC(=O)c2c(C)cc(O)c(C=O)c2O)c(C)c1O [ATRANORIN] | 50.7% | -45.9% | 1.02 | – | – | – | –

Reference: article PMC6736568, “Discovery of Novel Anti-cryptosporidial Activities From Natural Products by in vitro High-Throughput Phenotypic Screening” (Frontiers in Microbiology, 2019)
